Two compounds from patent publication EP4755396A1, “TREATMENT OF P53 GENE MUTATION OR DEFECT NEGATIVE CANCER AND TUMOR PATIENTS” (Ascentawits Pharmaceuticals, Ltd., priority 2023, dated 2025) can be followed below.

The subject of one assay is H460 P53 KO #12. Kind of assay: In vitro cell proliferation inhibition under normoxia, p53 knockout cells. It counts as cell-based, human. As to the method: (§1) The p53 CRISPR/Cas9 KO plasmid (human) and p53 HDR plasmid (human) were purchased from Santa Cruz Company to construct H460 P53 KO cell lines, namely p53 knockout (KnockOut) H460 cell lines. Three groups of H460 P53 KO cell lines were constructed with numbers of H460 P53 KO # 1, H460 P53 KO # 7, and H460 P53 KO # 12.
(§2) After co-incubation for 15 minutes, they were added dropwise to the culture medium and mixed well.
(§3) After 48 h, 2 µg/mL puromycin was added for screening.
(§4) When the cell colonies grew to a sufficient size, single colonies were picked and cultured.
(§5) When the cell number reached a sufficient quantity, samples were collected for WB identification of the colonies.
(§6) H460 P53 KO cell lines, i.e. H460 P53 KO # 1, H460 P53 KO # 7, H460 P53 KO # 12 cell lines were used in experiments, respectively.

A further assay concerns H460 P53 KO #7. The assay is described as above. It counts as cell-based, human. As to the method: as §1, §2, §3, §4, §5, §6
Assay [1] has as its system H460 cells. In words: In vitro cell proliferation inhibition under normoxia (96-well, CTG, 72 hours). The conditions noted are these: for IC50 / inhibition at 0.0005 µM / inhibition at 0.0015 µM / inhibition at 0.25 µM / inhibition at 0.5 µM / inhibition at 1 µM: Homo sapiens, NCI-H460; for IC50: read-out: IC50; for inhibition at 0.25 µM: Nutlin-3 0.25 µM; for inhibition at 0.5 µM: Nutlin-3 0.5 µM; for inhibition at 1 µM: Nutlin-3 1 µM. It counts as cell-based, human. As to the method:
Overview of the experimental process • 1) H460 cell suspension was added to a 96-well plate at 100 µL per well, with a cell density of 2000 /well. • 2) The cells were cultured overnight in an incubator at 37°C, 5% CO2. • 3) Compound Treatment
Monotherapy: After 24 hours of cell plating, each well was supplied with 99.5 µL of growth medium then added with 0.5µL of test compounds at different concentrations, shaken gently to ensure even mixing, and then placed at 37°C, 5% CO2 in an incubator.
Combination therapy: After 24 hours of cell plating, each well was supplied with 99 µL of growth medium then added with 0.5µL of the combined action compound Nutlin-3, shaken gently to ensure even mixing, and then placed in an incubator for 2 hours. Then each well was added with 0.5µL of test compounds at different concentrations, shaken gently to ensure even mixing, and then placed at 37°C, 5% CO2 in an incubator.
(§7) 4) The cell plate was placed in the incubator for 72 hours.
(§8) 5) The cell plate to be tested was placed at room temperature to equilibrium for 30 minutes, and 100µL of medium was discarded per well.
(§9) 6) 25µL of CTG reagent was added to each well, placed at a fast shaker to shake for 2 minutes, and placed at room temperature away from light for 30 minutes.
(§10) 7) The chemiluminescence signal value was read using a multifunctional microplate reader with a reading time of 1000 ms.
8) IC50 was calculated with Graph Pad Prism 5 software.
(§11) • 1) H460 and HPAF-II cell suspensions were added to a 96-well plate at 100 µL per well, with a cell density of 2000 /well and 20000/well, respectively. • 2) The cells were cultured overnight in an incubator at 37°C, 5% CO2. • 3) Compound Treatment
(§12) Combination therapy: After 24 hours of cell plating, 99 µL of growth medium was supplied to each well. Each well was added with 0.5 µL of Nutlin-3 or RITA, shaken gently to ensure even mixing, and then placed in an incubator for 2 hours. Then each well was added with 0.5µL of test compounds at different concentrations, shaken gently to ensure even mixing, and then placed at 37°C, 5% CO2 in an incubator.
(§13) Monotherapy: After 24 hours of cell plating, 99.5 µL of growth medium was supplied to each well. Then each well was added with 0.5µL of test compounds at different concentrations, shaken gently to ensure even mixing, and then placed at 37°C, 5% CO2 in an incubator.
(§14) 7) The chemiluminescence signal value was read using a multifunctional microplate reader with a reading time of 1000 ms. The corresponding inhibition rate data were calculated.
(§15) • 1) NCI-H460, NCI-H460 P53KO # 1 cell suspensions were added to a 96-well plate at 100 µL per well, with a cell density of 2000 /well. • 2) The cells were cultured overnight in an incubator at 37°C, 5% CO2. • 3) Compound Treatment
(§16) Combination therapy: After 24 hours of cell plating, 99 µL of medium was supplied to each well. Each well was added with 0.5µL of combined action compound, shaken gently to ensure even mixing, and then placed in an incubator for 2 hours. Then each well was added with 0.5µL of test compounds at different concentrations, shaken gently to ensure even mixing, and then placed at 37°C, 5% CO2 in an incubator.
(§17) 8) The ICso (half maximal inhibitory concentration) values were calculated using GraphPad Prism 5 software.

A further assay deals with HPAF-II cells. Kind of assay: In vitro cell proliferation inhibition (96-well, CTG, 72 hours). In kind it is cell-based. The conditions noted are these: for inhibition at 0.06 µM / inhibition at 0.2 µM / inhibition at 1.667 µM / inhibition at 5 µM / inhibition at 7.5 µM / inhibition at 10 µM / inhibition at 15 µM: Homo sapiens, HPAF-II cells, 72 hours; for inhibition at 0.2 µM: AST 200 nM; for inhibition at 1.667 µM: AST 1667 nM; for inhibition at 5 µM: AST 5000 nM; for inhibition at 7.5 µM: Nutlin-3 7.5 µM; for inhibition at 10 µM: Nutlin-3 10 µM; for inhibition at 15 µM: Nutlin-3 15 µM. As to the method:
as §11, §12, §13, §7, §8, §9, §14

The test system of the next assay is H460 P53 KO #1. In words: In vitro cell proliferation inhibition under normoxia, p53 knockout cells. It counts as cell-based, human. As to the method:
as §1, §2, §3, §4, §5, §6, §15, §13, §16, §7, §8, §9, §10, §17

In assay [2] the test system is H460 cells. In words: Cell cycle G2/M arrest, PI staining flow cytometry. It counts as cell-based. The conditions noted are these: first experiment, 0.1 nM AST-3424, 5 µM Nutlin-3, 24 hours, combination: AST-3424 first (Figure 5). As to the method:
Overview of the experimental process: • 1) H460/HPAF-II cell suspensions were added to a 24-well plate, with a cell density of 100000 /well and 995 µL of medium per well. • 2) The cells were cultured overnight in an incubator at 37°C, 5% CO2. • 3) Compound Treatment
4) The cells were digested, centrifuged at 1000 g at 4°C, washed once with pre-cooled PBS, centrifuged at 1000 g at 4°C, and fixed with 1 mL of pre-cooled 70% ethanol at -20°C overnight.
5) The cells were centrifuged at 3000g at 4°C, washed once with pre-cooled PBS (phosphate buffer), centrifuged at 3000g at 4°C. Prepare PI staining solution. The cells were stained at 37°C away from light for 30 minutes, and stored in an ice bath away from light. Flow cytometric detection was performed on the same day, and the proportion of cells in different cell cycle phases was analyzed using FlowJo.

Like-named read-outs stand apart in the source and are kept apart here.

For orientation: IC50 means the midpoint of a concentration-inhibition curve. In general, inhibition refers to the drop in the measured response relative to a control, in per cent. With `O=[N+]([O-])c1ccc(C(OP(=O)(N2CC2)N2CC2)C(F)(F)F)cc1Oc1ccc(-c2ccc(F)cc2)c(F)c1` (centres unmarked) [AST], the IC50 with H460 P53 KO #12 (Homo sapiens, NCI-H460, H460 P53 KO # 12, normoxia, 72 hours, alone or with 3µM AST-3021 as labelled (Example 10)) stood at 28 nM; in the assay on H460 P53 KO #7 (Homo sapiens, NCI-H460, H460 P53 KO # 7, normoxia, 72 hours, alone or with 3µM AST-3021 as labelled (Example 10)), 220 nM; in the assay with H460 cells [1] (H460 WT, normoxia, 72 hours, alone or with 3µM AST-3021 as labelled (Example 10)), 2.55 nM; in the assay on H460 cells [1] (H460 cells, monotherapy, applicant's previous cancer cell proliferation inhibition test data), 6.87 nM; in the assay on H460 P53 KO #1 (Homo sapiens, NCI-H460, H460 P53 KO # 1, normoxia, 72 hours, alone or with 3µM AST-3021 as labelled (Example 10)) it was 264 nM. Besides, the “Ratio (monotherapy), knockout/wild” value in the assay on H460 P53 KO #12 (IC50 ratio, H460 P53 KO # 12 versus H460 WT) is 10.96; in the assay with H460 P53 KO #7 (IC50 ratio, H460 P53 KO # 7 versus H460 WT) it was 86.08; in the assay with H460 P53 KO #1 (IC50 ratio, H460 P53 KO # 1 versus H460 WT), 103.53. In addition, the “concentration required to achieve an inhibition rate of 11-12%” value in the assay with H460 cells [1] (AST monotherapy, p53 wild-type H460 cells) stood at 1.5 nM. Besides, the inhibition at 0.0005 µM in the assay with H460 cells [1] (H460 cells, 72 hours, AST 0.5 nM, RITA 0.025 µM, AST + RITA 0.5+0.025, read-out: Inhibition rate result, experimental group 1) is -0.29%; with H460 cells [1] (H460 cells, 72 hours, AST 0.5 nM, RITA 0.05 µM, AST + RITA 0.5+0.05, read-out: Inhibition rate result, experimental group 2), -0.29%. For the same compound, the inhibition at 0.0015 µM turned out to be 12.2% with H460 cells [1] (H460 cells, 72 hours, AST 1.5 nM, RITA 0.025 µM, AST + RITA 1.5+0.025, read-out: Inhibition rate result, experimental group 3) and 12.2% in the assay on H460 cells [1] (H460 cells, 72 hours, AST 1.5 nM, RITA 0.05 µM, AST + RITA 1.5+0.05, read-out: Inhibition rate result, experimental group 4). In addition, in the assay on HPAF-II cells (AST monotherapy, p53 mutant HPAF-II cells), the “concentration needed to achieve an inhibition rate of 11-12%” value worked out at 60 nM. The inhibition at 0.06 µM stood at 14.9% in the assay on HPAF-II cells (AST 60 nM, RITA 2.5 µM, AST + RITA 60+2.5, read-out: Inhibition rate, experimental group 1) and 14.9% in the assay with HPAF-II cells (AST 60 nM, RITA 5 µM, AST + RITA 60+5, read-out: Inhibition rate, experimental group 2). Also, the inhibition at 0.2 µM in the assay with HPAF-II cells (RITA 2.5 µM, AST + RITA 200+2.5, read-out: Inhibition rate, experimental group 3) is 11.8%; in the assay with HPAF-II cells (RITA 5 µM, AST + RITA 200+5, read-out: Inhibition rate, experimental group 4), 11.8%. In addition, the inhibition at 1.667 µM in the assay on HPAF-II cells (RITA 2.5 µM, AST + RITA 1667+2.5, read-out: Inhibition rate, experimental group 5) is 74.3%; with HPAF-II cells (RITA 5 µM, AST + RITA 1667+5, read-out: Inhibition rate, experimental group 6), 74.3%. The inhibition at 5 µM came out at 68.8% in the assay on HPAF-II cells (RITA 2.5 µM, AST + RITA 5000+2.5, read-out: Inhibition rate, experimental group 7) and 68.8% in the assay on HPAF-II cells (RITA 5 µM, AST + RITA 5000+5, read-out: Inhibition rate, experimental group 8).
Take `COc1ccc(C2=NC(c3ccc(Cl)cc3)C(c3ccc(Cl)cc3)N2C(=O)N2CCNC(=O)C2)c(OC(C)C)c1` (racemic) [Nutlin-3]: the inhibition at 0.25 µM with H460 cells [1] (H460 cells, 72 hours, AST 0.5 nM, AST+Nutlin-3 0.5+0.25, read-out: Inhibition rate result, experimental group 1) came to 11.8%; in the assay on H460 cells [1] (H460 cells, 72 hours, AST 1.5 nM, AST+Nutlin-3 1.5+0.25, read-out: Inhibition rate result, experimental group 4) it was 11.8%. For the same compound, the inhibition at 0.5 µM was determined as 17.3% in the assay on H460 cells [1] (H460 cells, 72 hours, AST 0.5 nM, AST+Nutlin-3 0.5+0.5, read-out: Inhibition rate result, experimental group 2) and 17.3% in the assay with H460 cells [1] (H460 cells, 72 hours, AST 1.5 nM, AST+Nutlin-3 1.5+0.5, read-out: Inhibition rate result, experimental group 5). The inhibition at 1 µM in the assay on H460 cells [1] (H460 cells, 72 hours, AST 0.5 nM, AST+Nutlin-3 0.5+1, read-out: Inhibition rate result, experimental group 3) worked out at 18.3%; with H460 cells [1] (H460 cells, 72 hours, AST 1.5 nM, AST+Nutlin-3 1.5+1, read-out: Inhibition rate result, experimental group 6) it was 18.3%. Also, the inhibition at 7.5 µM stood at 8.54% with HPAF-II cells (AST 20 nM, AST+Nutlin-3 20+7.5, read-out: Inhibition rate result, experimental group 1) and 8.54% with HPAF-II cells (AST 60 nM, AST+Nutlin-3 60+7.5, read-out: Inhibition rate result, experimental group 4). In addition, the inhibition at 10 µM in the assay on HPAF-II cells (AST 20 nM, AST+Nutlin-3 20+10, read-out: Inhibition rate result, experimental group 2) was 52.5%; with HPAF-II cells (AST 60 nM, AST+Nutlin-3 60+10, read-out: Inhibition rate result, experimental group 5) it was 52.5%. Moreover, the inhibition at 15 µM with HPAF-II cells (AST 20 nM, AST+Nutlin-3 20+15, read-out: Inhibition rate result, experimental group 3) was 73.9%; with HPAF-II cells (AST 60 nM, AST+Nutlin-3 60+15, read-out: Inhibition rate result, experimental group 6), 73.9%. Moreover, the “cell cycle (G0/G1, S, G2/M phases)” value with H460 cells [2] is “did not significantly alter the cell cycle”.
